According to PubChem BioAssay AID330 (DTP/NCI, 2004):
Values joined by “and” are separate entries in the source; they are usually repeats but may differ in a detail not shown here. Equal values may be shown once. Inconclusive results and toxic doses are left out.

Test system: P388 leukemia ip, CD2F1 mice, survival T/C
Test: NCI In Vivo Anticancer Drug Screen. Data for tumor model P388 Leukemia (intraperitoneal) in CD2F1 (CDF1) mice
Settings: endpoint: median survival time, higher = longer survival
How it was run: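 Mice carrying the transplanted tumor received test compound or vehicle. Survival was recorded in each group, and the value is the treated-group measurement divided by that of the vehicle-treated control group.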

[1] = dose: 50.0 mg/kg/injection, schedule: Q01DX005 (ip), vehicle: saline with Tween-80
[2] = dose: 100.0 mg/kg/injection, schedule: Q01DX005 (ip), vehicle: saline with Tween-80
[3] = dose: 200.0 mg/kg/injection, schedule: Q01DX005 (ip), vehicle: saline with Tween-80
[4] = dose: 60.0 mg/kg/injection, schedule: Q01DX005 (ip), vehicle: saline
[5] = dose: 120.0 mg/kg/injection, schedule: Q01DX005 (ip), vehicle: saline
[6] = dose: 240.0 mg/kg/injection, schedule: Q01DX005 (ip), vehicle: saline
[7] = dose: 50.0 mg/kg/injection, schedule: Q01DX009 (ip), vehicle: Klucel (hydroxypropylcellulose) (HPC)
[8] = dose: 100.0 mg/kg/injection, schedule: Q01DX009 (ip), vehicle: Klucel (hydroxypropylcellulose) (HPC)
[9] = dose: 100.0 mg/kg/injection, schedule: Q04DX003 (ip), vehicle: saline with Tween-80
[10] = dose: 50.0 mg/kg/injection, schedule: Q01DX009 (ip), vehicle: saline with Tween-80
[11] = dose: 100.0 mg/kg/injection, schedule: Q01DX009 (ip), vehicle: saline with Tween-80
[12] = dose: 200.0 mg/kg/injection, schedule: Q01DX009 (ip), vehicle: saline with Tween-80
[13] = dose: 6.25 mg/kg/injection, schedule: Q01DX009 (ip), vehicle: Klucel (hydroxypropylcellulose) (HPC)
[14] = dose: 12.5 mg/kg/injection, schedule: Q01DX009 (ip), vehicle: Klucel (hydroxypropylcellulose) (HPC)
[15] = dose: 50.0 mg/kg/injection, schedule: Q01DX005 (ip), vehicle: Klucel (hydroxypropylcellulose) (HPC)
[16] = dose: 100.0 mg/kg/injection, schedule: Q01DX005 (ip), vehicle: Klucel (hydroxypropylcellulose) (HPC)
[17] = dose: 200.0 mg/kg/injection, schedule: Q01DX005 (ip), vehicle: Klucel (hydroxypropylcellulose) (HPC)

## [Cu+2].[NH-]C(Cc1cnc[nH]1)C(=O)O.[NH-]CC(=O)O (stereo unspecified)
dose: 6.25 mg/kg/injection, schedule: Q01DX009 (ip), vehicle: saline
  T/C: 97 % of control
dose: 12.5 mg/kg/injection, schedule: Q01DX009 (ip), vehicle: saline
  T/C: 93 % of control and 95 % of control
dose: 25.0 mg/kg/injection, schedule: Q01DX009 (ip), vehicle: saline
  T/C: 97 % of control

## Nc1nc2cc3[nH]ncc3cc2c(=O)[nH]1
dose: 12.5 mg/kg/injection, schedule: Q01DX005 (ip), vehicle: saline with Tween-80
  T/C: 98 % of control
dose: 25.0 mg/kg/injection, schedule: Q01DX005 (ip), vehicle: saline with Tween-80
  T/C: 91 % of control
[1]
  T/C: 94 % of control and 97 % of control
[2]
  T/C: 101 % of control
[3]
  T/C: 102 % of control

## COC(C(=O)C(O)C(C)O)C1CC2C=C3C=C(OC4CC(OC5CC(O)C(OC)C(C)O5)C(OC(C)=O)C(C)O4)C(C)C(=O)C3=C(O)C2=C(O)C1OC1CC(OC2CC(OC3CC(C)(O)C(OC(=O)C(C)C)C(C)O3)C(O)C(C)O2)C(O)C(C)O1 (stereo unspecified)
dose: 1.0 micrograms/kg/injection, schedule: Q01DX010 (ip), vehicle: saline
  T/C: 150 % of control
dose: 4.0 micrograms/kg/injection, schedule: Q01DX010 (ip), vehicle: saline
  T/C: 165 % of control
dose: 8.0 micrograms/kg/injection, schedule: Q01DX010 (ip), vehicle: saline
  T/C: 175 % of control
dose: 16.0 micrograms/kg/injection, schedule: Q01DX010 (ip), vehicle: saline
  T/C: 155 % of control

## N#CC1=C(N)OC(/C=C/c2ccccc2)=C(C#N)C1c1ccccc1 (stereo unspecified)
[1]
  T/C: 97 % of control
[2]
  T/C: 98 % of control
[3]
  T/C: 89 % of control

## O=c1[nH]c(=O)n(C2OC(CO)C(O)C2O)cc1O (stereo unspecified)
[4]
  T/C: 102 % of control
[5]
  T/C: 101 % of control
[6]
  T/C: 103 % of control

## O=C(O)CC12CC3CC(CC(O)(C3)C1)C2
[7]
  T/C: 100 % of control
[8]
  T/C: 109 % of control
dose: 200.0 mg/kg/injection, schedule: Q01DX009 (ip), vehicle: Klucel (hydroxypropylcellulose) (HPC)
  T/C: 90 % of control

## CC(=O)NC(CC(C)C)C(=O)NC(CC(C)C)C(=O)NC(C=O)CCCN=C(N)N (stereo unspecified)
dose: 100.0 mg/kg/injection, schedule: Q01DX001 (ip), vehicle: saline
  T/C: 106 % of control
dose: 200.0 mg/kg/injection, schedule: Q01DX001 (ip), vehicle: saline
  T/C: 105 % of control

## CCOc1ccc(CO)cc1
[9]
  T/C: 120 % of control
dose: 200.0 mg/kg/injection, schedule: Q04DX003 (ip), vehicle: saline with Tween-80
  T/C: 120 % of control
dose: 400.0 mg/kg/injection, schedule: Q04DX003 (ip), vehicle: saline with Tween-80
  T/C: 120 % of control

## O=C1NC(=O)C(C2CCOC2=O)N1 (stereo unspecified)
[10]
  T/C: 106 % of control
[11]
  T/C: 102 % of control
[12]
  T/C: 106 % of control

## COc1ccc2c3c([nH]c2c1[N+](=O)[O-])C(C)N(C)CC3 (stereo unspecified)
dose: 8.5 mg/kg/injection, schedule: Q01DX005 (ip), vehicle: Klucel (hydroxypropylcellulose) (HPC)
  T/C: 107 % of control
dose: 17.0 mg/kg/injection, schedule: Q01DX005 (ip), vehicle: Klucel (hydroxypropylcellulose) (HPC)
  T/C: 101 % of control

## N#CCCNc1ccc(NCCC#N)c2c1C(=O)c1c(O)ccc(O)c1C2=O
dose: 25.0 mg/kg/injection, schedule: Q04DX002 (ip), vehicle: saline with Tween-80
  T/C: 103 % of control
dose: 50.0 mg/kg/injection, schedule: Q04DX002 (ip), vehicle: saline with Tween-80
  T/C: 94 % of control
dose: 100.0 mg/kg/injection, schedule: Q04DX002 (ip), vehicle: saline with Tween-80
  T/C: 101 % of control
dose: 200.0 mg/kg/injection, schedule: Q04DX002 (ip), vehicle: saline with Tween-80
  T/C: 104 % of control

## O=C(CC(Sc1ccccc1)c1cccc([N+](=O)[O-])c1)c1ccccc1 (stereo unspecified)
[7]
  T/C: 93 % of control
[8]
  T/C: 95 % of control

## O=C(CCBr)c1ccc(Cl)cc1
dose: 25.0 mg/kg/injection, schedule: Q04DX003 (ip), vehicle: saline with Tween-80
  T/C: 107 % of control
dose: 50.0 mg/kg/injection, schedule: Q04DX003 (ip), vehicle: saline with Tween-80
  T/C: 103 % of control
[9]
  T/C: 100 % of control

## CSc1nc(NC2OC(CO)C(O)C(O)C2O)c(C(=O)CCl)c(=O)n1C (stereo unspecified)
[1]
  T/C: 93 % of control
[2]
  T/C: 91 % of control
[3]
  T/C: 90 % of control

## CC(=O)N(c1c(N)[nH]c(=O)n(C)c1=O)C1OC(CO)C(O)C(O)C1O (stereo unspecified)
[4]
  T/C: 99 % of control
[5]
  T/C: 99 % of control
[6]
  T/C: 97 % of control

## COC(=O)[C@]1(O)Cc2c(O)c3c(c(O)c2[C@@H](OC2CC(N)C(O)C(C)O2)C1)C(=O)c1c(OC)cccc1C3=O (stereo partly specified)
dose: 1.56 mg/kg/injection, schedule: Q01DX009 (ip), vehicle: water
  T/C: 110 % of control
dose: 3.13 mg/kg/injection, schedule: Q01DX009 (ip), vehicle: water
  T/C: 108 % of control
dose: 6.25 mg/kg/injection, schedule: Q01DX009 (ip), vehicle: water
  T/C: 109 % of control and 114 % of control
dose: 12.5 mg/kg/injection, schedule: Q01DX009 (ip), vehicle: water
  T/C: 116 % of control and 118 % of control
dose: 25.0 mg/kg/injection, schedule: Q01DX009 (ip), vehicle: water
  T/C: 116 % of control

## O=C1C(Br)=CC(=NCl)C=C1Br
dose: 3.13 mg/kg/injection, schedule: Q01DX009 (ip), vehicle: Klucel (hydroxypropylcellulose) (HPC)
  T/C: 101 % of control and 88 % of control
[13]
  T/C: 101 % of control
dose: 6.25 mg/kg/injection, schedule: Q01DX009 (ip), vehicle: saline with Tween-80
  T/C: 93 % of control
[14]
  T/C: 105 % of control and 94 % of control
dose: 12.5 mg/kg/injection, schedule: Q01DX009 (ip), vehicle: saline with Tween-80
  T/C: 88 % of control
dose: 25.0 mg/kg/injection, schedule: Q01DX009 (ip), vehicle: saline with Tween-80
  T/C: 90 % of control

## Cc1nc2sc3c(c2c2ncnn12)CCCC3
[1]
  T/C: 103 % of control
[2]
  T/C: 98 % of control
[3]
  T/C: 104 % of control

## Cc1cccc(N2CCN(c3ccc4nonc4c3[N+](=O)[O-])CC2)c1
dose: 50.0 mg/kg/injection, schedule: Q01DX009 (ip), vehicle: suspension in saline
  T/C: 98 % of control
dose: 100.0 mg/kg/injection, schedule: Q01DX009 (ip), vehicle: suspension in saline
  T/C: 92 % of control and 95 % of control
dose: 200.0 mg/kg/injection, schedule: Q01DX009 (ip), vehicle: suspension in saline
  T/C: 89 % of control and 90 % of control

## CC(=O)Nc1ncnc2c1c(C(N)=O)cn2C1OC(COC(C)=O)C(OC(C)=O)C1OC(C)=O (stereo unspecified)
dose: 1.88 mg/kg/injection, schedule: Q01DX005 (ip), vehicle: saline
  T/C: 107 % of control
dose: 3.75 mg/kg/injection, schedule: Q01DX005 (ip), vehicle: saline
  T/C: 117 % of control

## O=C(OC1C2COC(O2)C(OC(=O)c2ccccc2)C1OC(=O)c1ccccc1)c1ccccc1 (stereo unspecified)
[15]
  T/C: 104 % of control
[16]
  T/C: 101 % of control
[17]
  T/C: 104 % of control

## Cc1c(-c2ccccc2)n(O)c(-c2ccc(N(C)C)cc2)[n+]1[O-]
[10]
  T/C: 98 % of control
[11]
  T/C: 92 % of control
[12]
  T/C: 91 % of control

## COCn1ccnc1C(=O)c1ccccc1
[10]
  T/C: 100 % of control
[11]
  T/C: 106 % of control
[12]
  T/C: 101 % of control

## C=CCN(CC=C)c1nc(N)c2cc(OC)c(OC)cc2n1
dose: 37.5 mg/kg/injection, schedule: Q01DX009 (ip), vehicle: suspension in saline
  T/C: 100 % of control
dose: 75.0 mg/kg/injection, schedule: Q01DX009 (ip), vehicle: suspension in saline
  T/C: 106 % of control

## C/C=C(\C)C(C)(C#N)Nc1ccccc1 (stereo unspecified)
[12]
  T/C: 90 % of control

## CC1CC(=O)c2c(nn(C)c2COCc2ccccc2)C1 (stereo unspecified)
dose: 60.0 mg/kg/injection, schedule: Q01DX005 (ip), vehicle: saline with Tween-80
  T/C: 102 % of control
dose: 120.0 mg/kg/injection, schedule: Q01DX005 (ip), vehicle: saline with Tween-80
  T/C: 91 % of control
dose: 240.0 mg/kg/injection, schedule: Q01DX005 (ip), vehicle: saline with Tween-80
  T/C: 96 % of control

## N#CC(O)COc1nsnc1N1CCOCC1 (stereo unspecified)
[13]
  T/C: 108 % of control
[14]
  T/C: 106 % of control
dose: 25.0 mg/kg/injection, schedule: Q01DX009 (ip), vehicle: Klucel (hydroxypropylcellulose) (HPC)
  T/C: 105 % of control

## Cc1cccc(CO)c1-c1c(C)cccc1CO
[15]
  T/C: 101 % of control
[16]
  T/C: 108 % of control
[17]
  T/C: 100 % of control
